Literature values as cited in patent publication US20090214648A1 (priority 2008, published 2009).

How the values were obtained:
[1] = in vivo

Inhibition of cyclooxygenase (enzyme cyclooxygenase): potent inhibitor
Dose excreted in the urine [1]: more than 90%
Dose excreted unchanged [1]: Less than 10%
Time until excretion is essentially complete [1]: ≤ 24 h
SMILES: CC(C)Cc1ccc(C(C)C(=O)O)cc1 (stereo not shown) [Ibuprofen, 2-[4-(2-methylpropyl)phenyl]propanoic acid]
